Columns and labels:
pRab10 [1] = test: Rab10 dephosphorylation in R1441C LRRK2 MEFs; type: cell-based; details: Mus musculus, 4 h, read-out: EC50s (pRab10)
Text: Primary MEFs were generated as described in a previous study.[80] Briefly, the uterine horn was collected from adult female mice at day E12.5 and transferred to a 10 cm tissue culture dish containing cold PBS. Two forceps were used to tear the yolk sacs to isolate each embryo. Forceps were cleaned thoroughly with 70% ethanol between each embryo isolation. The embryos were culled, and a tissue piece was collected in a polymerase chain reaction (PCR) tube for genotyping. The red tissue of the embryo was removed, and the remainder was minced with a scalpel blade and incubated with a 7.5 mL trypsin–ethylenediaminetetraacetic acid (EDTA) solution for 10 min in a 37 °C, 5% CO2 tissue culture incubator. The dish was removed from the incubator and checked under a light microscope for single cells. Complete media (7.5 mL) was added to the trypsinized cells, and the cell suspension was transferred to a 15 mL Falcon tube and centrifuged at 1200 rpm for 5 min at room temperature. […]
Culturing and passaging of adherent cell lines were carried out using an aseptic technique in CL1 or CL2 (for PBMC isolation) biological safety cabinets. […] The cell pellet was discarded, and the supernatant was collected for analysis by quantitative immunoblotting. […] Protein concentrations of cell lysates were determined using the Bradford assay. […]

pRab10 [2] = test: cells; type: cell-based, human; details: for EC50: Homo sapiens, PBMC, PBMCs, read-out: EC50s (pRab10)
Text: The relative LRRK2 protein and pRab10 levels were obtained by quantifying the ratios of total LRRK2/GAPDH or Rab10-pThr73/total Rab10, respectively, and the ratios were normalized to the DMSO-treated samples. The relative LRRK2 and pRab10 protein levels were plotted against the compound concentration and fitted against “nonlinear regression, one site-fit log IC50” in GraphPad to obtain the DC50 and EC50 values. Data points are presented as mean ± standard error of the mean (SEM) from three biological independent replicates. […] The relative LRRK2 protein and pRab10 levels were obtained by quantifying the ratios of total LRRK2/ GAPDH or Rab10-pThr73/total Rab10, respectively, and the ratios were normalized to the DMSO-treated samples. The relative LRRK2 and pRab10 protein levels were plotted against the treatment time and were fitted against “nonlinear regression, one-phase decay” in GraphPad to obtain the half-life (T1/2) values. Data points are presented as mean ± SEM from three biological independent replicates. […] The relative LRRK2 levels were obtained by quantifying the ratios of total LRRK2/tubulin and normalized to the DMSO-treated samples. The relative LRRK2 levels were plotted against the compound concentration and fitted against “nonlinear regression, one site-fit log IC50” in GraphPad to obtain the DC50 values.
PBMC cells were separated from human blood from healthy volunteer donors following the existing protocol[82] and pelleted by centrifugation at 1000g for 2 min. The supernatant was discarded, and the PBMC pellet was resuspended in PBS containing 2% FBS for washing. The suspension was centrifuged at 1000g for 2 min again, and the PBMC pellet was resuspended in Roswell Park Memorial Institute (RPMI)-1640 (Gibco) media supplemented with 10% FBS. The cells were then seeded into six-well plates and treated with testing compounds at indicated concentrations and time periods. After treatment, the cells were collected into a 2 mL Eppendorf tube and centrifuged at 500g for 2 min to pellet the cells, the supernatant was discarded, and the pellet was resuspended in 1 mL PBS and centrifuged at 500g for 2 min again. The PBMC pellet was lysed with 60 μL of lysis buffer containing 50 mM tris–HCl, pH 7.5, 1% (v/v) Triton X-100, 1 mM ethylene glycol-bis(β-aminoethyl ether)-N,N,N′,N′-tetraacetic acid (EGTA), 1 mM sodium orthovanadate, 50 mM NaF, 0.1% (v/v) 2-mercaptoethanol, 10 mM 2-glycerophosphate, 5 mM sodium pyrophosphate, 0.1 μg/mL microcystin-LR (Enzo Life Sciences), 270 mM sucrose, and 0.5 mM diisopropyl fluorophosphate (DIFP) (Sigma-Aldrich, Cat# D0879) in addition to a complete EDTA-free protease inhibitor cocktail (Sigma-Aldrich Cat # 11836170001). DIFP is highly toxic and must be prepared in a fume hood to a stock solution of 0.5 M in isopropanol. The lysed cells were then centrifuged at 1500g for 15 min at 0 °C. The supernatants were collected for analysis by quantitative immunoblotting. For long-term storage, the supernatant was flash-frozen and stored at −80 °C. Protein concentrations of cell lysates were determined using the Pierce BCA Protein Assay Kit (Thermo Fisher).
Cell lysates containing a quarter of a volume of 4× NuPAGE LDS sample buffer (NP0007) supplemented with 5% β-mercaptoethanol were heated at 95 °C for 5 min. […]

| SMILES | EC50 (pRab10 [1]) [nM] | EC50 (pRab10 [2]; 4 h) [nM] | EC50 (pRab10 [2]; 24 h) [nM] | pRab10 T1/2 (pRab10 [2]; human, pbmc, 300 nM) [h] |
| --- | --- | --- | --- | --- |
| CNc1nc(Nc2ccc(C(=O)N3CCN(C[C@H]4CC[C@H](CSC(C)(C)[C@H](NC(=O)C5(F)CC5)C(=O)N5C[C@H](O)CC5C(=O)NCc5ccc(-c6scnc6C)cc5)CC4)CC3)cc2OC)ncc1Cl (stereo partly drawn) [XL01126, (2S,4R)-1-((R)-3-((((1R,4R)-4-((4-(4-((5-Chloro-4-(methylamino)pyrimidin-2-yl)amino)-3-methoxybenzoyl)piperazin-1-yl)methyl)cyclohexyl)methyl)thio)-2-(1-fluorocyclopropane-1-carboxamido)-3-methylbutanoyl)-4-hydroxy-N-(4-(4-methylthiazol-5-yl)benzyl)pyrrolidine-2-carboxamide] | 30 | 69 | 20 | 0.38 |
| CNc1nc(Nc2ccc(C(=O)N3CCN(C[C@H]4CC[C@H](CSC(C)(C)[C@H](NC(=O)C5(F)CC5)C(=O)N5C[C@@H](O)C[C@H]5C(=O)NCc5ccc(-c6scnc6C)cc5)CC4)CC3)cc2OC)ncc1Cl [cis-XL01126, (2S,4S)-1-((R)-3-((((1R,4R)-4-((4-(4-((5-Chloro-4-(methylamino)pyrimidin-2-yl)amino)-3-methoxybenzoyl)piperazin-1-yl)methyl)cyclohexyl)methyl)thio)-2-(1-fluorocyclopropane-1-carboxamido)-3-methylbutanoyl)-4-hydroxy-N-(4-(4-methylthiazol-5-yl)benzyl)pyrrolidine-2-carboxamide] | 158 | ~3000 | 705 |  |
